In general, IC50 refers to the concentration at which inhibition is half-maximal. In general, inhibition refers to how much of the control response was suppressed.

The text below walks through data of patent US6087358A (priority 1997, dated 2000).

≈ marks a conversion by molar mass, not a printed value.

The subject of one test is Cryptosporidium parvum. The test is described as follows: Inhibition of Cryptosporidium parvum (ELISA, infected HCT-8 monolayers). It counts as cell-based. As for the experimental part: Susceptibility testing against Cryptosporidium was performed according to published procedures (K. Woods, M. Nesterenko, S. Upton, "Development of a microtiter ELISA to quantify development of Cryptosporidium parvum in vitro," FEMS Microbiology Letters, 128:89-94 (1995).
Compounds were solubilized to a concentration of 100 mg/mL in 100% DMSO. DMSO solutions of test compounds were added to the test wells of a microplate at a volume that produced a final concentration of DMSO of 0.2%. Monolayers of human ileocecal adenocarcinoma cells (HCT-8) were prepared by growth in RPMI 1640 medium in 96-Well tissue culture trays for 24 h. Oocysts of C. parvum were allowed to excyst in 10% bleach for 10 min prior to use. Monolayers were then infected with 2-3×10^4 oocysts/well and incubated in the presence or absence of compound for 48 h at 35° C. in 5% CO2 and 95% humidity. Background consisted of wells containing killed oocysts (freeze thaw cycle following 30 sec exposure to liquid nitrogen). Growth control wells were infected with 2-3×10^4 oocysts/well in the absence of test compounds. At the end of incubation, wells were washed and fixed by adding 100 uL of 4% formalin in phosphate buffered saline (pH 7.3) per well for 2 h. After blocking with 1% bovine serum albumin, and 0.002% Tween 20, 50 uL of rat anti-Cryptosporidium membrane protein antiserum was added. After 30 min, wells were washed in PBS and 50 uL of secondary antibody (goat anti-rat antibody conjugated with horseradish peroxidase) was added. After 20-30 min, wells were washed again in PBS and 50 uL of 3,3',5,5'-tetramethylbenzidine solution was added. Plates were allowed to develop for 10-15 min and the optical density was read at 630 nm. Percent inhibition was calculated by comparing the optical density of the drug treated group to that of the untreated control.
On the technique in general: ELISA stands for enzyme-linked immunosorbent assay.

The test system of test [1] is Mycobacterium bovis (rBCG-lux). Briefly: microbe, parasite or virus in culture. It counts as cell-based, Mycobacterium bovis bacille Calmette Guerin. Particulars: Mycobacterium tuberculosis variant bovis, 72 h; read-out: % of control, measured in RLUs.
For test [2], the system named is Helicobacter pylori Strain 4187E. The test is described as follows: In vivo activity against Helicobacter pylori strain 4187E in mice. Particulars: oral gavage, four days. Set-up: species or system in outbred female white mice. The source says: Outbred female white mice (20 grams) were infected by oral gavage with 10^7 -10^8 colony forming units of H. pylori strain 4187E (originally isolated from a patient with a duodenal ulcer). […] Treatment continued for four days. Clarithromycin, administered at the same concentration and for the same duration, was included as a positive control. One group of animals also received an equal volume of formulation vehicle alone, to provide a negative control.
Five days after cessation of treatment, all animals were sacrificed, the stomachs were removed, opened, and the contents washed out. The entire mucosal surface was then spread evenly over the surface of an agar plate containing antibiotics appropriate for the prevention of growth of microorganisms other than Helicobacter spp. After seven days incubation under microaeropilic conditions at 37° C., culture plates were evaluated for bacterial growth.

Test [3] relates to Mycobacterium tuberculosis (rMTB). The test is described as follows: In vivo antimycobacterial activity against M. tuberculosis (rMTB) in spleens of mice. The conditions noted are these: 25 mg/kg daily oral gavage, CM-2, 10 days, control 422,866 (PA-824, 636, 1297) or 362,274 (others). Also on record: species or system Mycobacterium tuberculosis Erdman, in female BALB/c mice.
Test [4] deals with Mycobacterium bovis BCG (recombinant strain). Briefly: microbe, parasite or virus in culture. It counts as cell-based. The conditions noted are these: Mycobacterium tuberculosis variant bovis BCG, BCG, 144 h; 6 days 37° C.; read-out: MIC, column A, 3(S) compounds.
Test [5] deals with Mycobacterium tuberculosis (rMTB). Briefly: In vivo antimycobacterial activity against M. tuberculosis (rMTB) in lungs of mice. Also on record: species or system Mycobacterium tuberculosis Erdman, in female BALB/c mice. The conditions noted are these: 25 mg/kg daily oral gavage, CM-2, 10 days, control 117,258 (PA-824, 636, 1297) or 22,751 (others).
Another test concerns Helicobacter felis. The test is described as follows: In vivo activity against Helicobacter felis in mice (urease test of stomach biopsy). Also on record: species or system in female CD-1 mice. Particulars: 50 mg/kg three times daily oral gavage, CM-2, four days; vehicle and untreated 100. As for the experimental part: Female CD-1 mice weighing 30 grams were infected by oral gavage with 10^8 -10^9 colony forming units of H. felis. This infection process was repeated two, and four days, thereafter. Colonization of the stomach was allowed to occur over a seven day period. Animals were segregated into groups of five, and were treated three times daily by oral gavage with 50 mg/kg of test drugs prepared in the CM-2 formulation vehicle (Example 52). Treatment continued for four days. One group of animals received an equal volume of formulation vehicle alone, to ensure that the vehicle had no effect on the Helicobacter infection. A separate untreated control group was also included.
All animals were then sacrificed, the stomachs were removed, opened, and the contents washed out. A five millimeter diameter biopsy was removed, and transferred to a urease test solution containing a pH-sensitive dye, which was then incubated at 37° C. incubator for 24 hours. A blue or purple coloration in this test solution signifies a positive reaction, indicating the continued presence of viable Helicobacter bacteria; a negative result is indicated by a yellow coloration. Viable Helicobacter bacteria produce a urease enzyme which converts urea, of which there is an abundant supply in the stomach (from saliva and gastric juices), into bicarbonate and ammonia, which are strong bases. This mechanism is considered to provide conditions more amenable to the survival of Helicobacter in the otherwise acidic conditions prevalent in the stomach.

As to `O=[N+]([O-])c1cn2c(n1)OC[C@@H](OCc1ccc(OC(F)(F)F)cc1)C2` [PA-824, 3S 4-(Trifluromethoxy)benzyloxy-6-nitro-2H-3,4-dihydro-[2-1b]imidazopyran], the dose-related response entry with Cryptosporidium parvum (C. parvum growth) was “A clear dose-related response”. This molecule also gave an IC50 in the test with Cryptosporidium parvum (Cryptosporidium parvum, HCT-8) of 25 µg/mL (≈ 69.6 µM). In addition, the inhibition at 5 µg/mL in the test with Cryptosporidium parvum (Cryptosporidium parvum, HCT-8, 5 μg/mL, 48 h, read-out: Percent Inhibition of C. parvum) was 3.1%. Also, in the test on Cryptosporidium parvum (Cryptosporidium parvum, HCT-8, 10 μg/mL, 48 h, read-out: Percent Inhibition of C. parvum), the inhibition at 10 µg/mL was determined as 17%. For the same molecule, in the test on Cryptosporidium parvum (Cryptosporidium parvum, HCT-8, 20 μg/mL, 48 h, read-out: Percent Inhibition of C. parvum), the inhibition at 20 µg/mL stood at 40%. Also, the inhibition at 25 µg/mL with Cryptosporidium parvum (Cryptosporidium parvum, HCT-8, 25 μg/mL, 48 h, read-out: Percent Inhibition of C. parvum) came out at 52%. In addition, the inhibition at 50 µg/mL with Cryptosporidium parvum (Cryptosporidium parvum, HCT-8, 50 μg/mL, 48 h, read-out: Percent Inhibition of C. parvum) was 93%. Further, the inhibition at 100 µg/mL in the test on Cryptosporidium parvum (Cryptosporidium parvum, HCT-8, 100 μg/mL, 48 h, read-out: Percent Inhibition of C. parvum) was 87%. For the same molecule, in test [1], the activity at 0.15 µg/mL turned out to be 29.4%, the activity at 0.31 µg/mL was 12.3%, the activity at 0.62 µg/mL amounted to 0.6% and the activity at 1.25 µg/mL was 0.3%. Besides, in test [1], the activity at 2.5 µg/mL worked out at 0.2% and the activity at 5 µg/mL was 0.1%. Further, the “% Eradication” value in test [2] (once daily 25 mg/kg) is reported as 0%. Also, the “% Eradication” value in test [2] (twice daily 5 mg/kg) is listed as 10%. Also, the “% Eradication” value in test [2] (twice daily 50 mg/kg) is given as 100%. Besides, the “Average RLUs, M. tuberculosis (rMTB) in spleens” value in test [3] was 53,540 RLUs. The MIC in test [4] is 0.06 µg/mL (≈ 0.167 µM). Further, in test [5], the “Average RLUs, M. tuberculosis (rMTB) in lungs” value is on record as 2,496 RLUs. Also, in the test with Helicobacter felis, the “% Survival” value is 40%.
